Experimental data taken from patent publication US11872228B2, “Pharmaceutical composition containing thiamine derivative for prevention or treatment of sepsis” (KYUNGPOOK NATIONAL UNIVERSITY INDUSTRY-ACADEMIC COOPERATION …, priority 2021, dated 2024).
Where two headings read alike, the source gives them in different places.

Key:
TNFα [1] = assay: Inhibition of TNFα expression in LPS-activated dendritic cells (ELISA of supernatants); format: cell-based, C57BL/6J male mice; settings: for TNFα (pg/mL): dendritic cells, 100 ng/mL LPS 18 h
Experimental: (§1) The dendritic cells at 1×10^6 cells/mL were treated with benfotiamine and fursultiamine at different concentrations of 0, 1, 10, and 100 and allithiamine at different concentrations of 0, 1, and 10 μM.
Thereafter, the dendritic cells were activated with 100 ng/mL LPS for 18 hours.

[2] = tested on: LPS-induced sepsis mouse model
Experimental: (The signs of the moribund state: impaired mobility, inability to maintain upright position, prolonged lack of activity and labored breathing)
Six- to eight-week old C57BL/6J male mice were grouped, each group containing seven mice. The whole experimental schedule is shown FIG. 1. The mice were fed fursultiamine 24 hours and 30 minutes before intraperitoneal injection of 40 mg/kg LPS, and then again administered fursultiamine 6 hours after the intraperitoneal injection, and then the survival rates of the mice were monitored and the results are shown in FIG. 2 and Table 1.

IL-1β [3] = assay: Inhibition of IL-1β expression in LPS-primed, ATP-treated dendritic cells; format: cell-based, C57BL/6J male mice; settings: for IL-1β: LPS priming + 5 mM ATP
Experimental: Bone marrow was extracted from the legs of six- to eight-week old C57BL/6J male mice, and subjected to red blood cell (RBC) lysis, followed by differentiation into dendritic cells in RPMI 1640 medium (10% fetal bovine serum (FBS) and 1% penicillin-streptomycin) along with 20 ng/ml granulocyte-macrophage colony-stimulating factor (GM-CSF) for six days. The dendritic cells at 1×10^6 cells/mL were treated with benfotiamine and fursultiamine at different concentrations of 0, 1, 10, and 100 and allithiamine at different concentrations of 0, 1, and 10 μM.
The dendritic cells were subjected to pro-IL1b priming by the treatment with 500 ng/mL LPS for 3 hours, and then treated with benfotiamine at 0, 10, 50, or 100 and fursultiamine at 0, 10, 50, or 100 μM, for 15 minutes. Then, pro-IL1b was converted into IL-1β through pro-IL1b cleavage, followed by 5 mM ATP treatment for inducing inflammasome formation.

TNFα [4] = assay: Inhibition of TNFα expression in LPS-activated dendritic cells (ELISA of supernatants); format: cell-based, C57BL/6J male mice; settings: for TNFα expression level relative to LPS alone: LPS-activated dendritic cells
CD40 = CD40 expression in CD11c+ dendritic cells by flow cytometry; format: cell-based, C57BL/6J male mice
Experimental: as §1
(§2) The dendritic cells were measured for CD40 and CD86 in CD11c+ cells by flow cytometry, and the results are shown in FIGS. 6A and 6B and Tables 5 and 6.

IL-1β [5] = tested on: IL-1β
CD86 [6] = assay: CD86 expression in CD11c+ dendritic cells by flow cytometry; format: cell-based, C57BL/6J male mice; settings: 50 μM, 100 ng/mL LPS
CD86 [7] = assay: as above; format: cell-based, C57BL/6J male mice
Experimental: as §1, §2

[8] = 100 μM, dendritic cells not stimulated by LPS
[9] = 1 μM, dendritic cells, 100 ng/mL LPS
[10] = 10 μM, dendritic cells, 100 ng/mL LPS
[11] = 100 μM, dendritic cells, 100 ng/mL LPS

Compound: CC(=C(CCO)SSCC1CCCO1)N(C=O)Cc1cnc(C)nc1N (stereo in doubt) [Fursultiamine, fursultiamine]
- TNFα (pg/mL) (TNFα [1]; 1 μM): 4,954.64 pg/mL
- TNFα expression level relative to LPS alone (TNFα [1]; 10 μM, LPS-activated dendritic cells): about 68.60%
- TNFα (pg/mL) (TNFα [1]; 10 μM): 3,600.63 pg/mL
- TNFα (pg/mL) (TNFα [1]; 100 μM): 1,628.26 pg/mL
- Survival despite LPS injection (in words) ([2]; fed 100 mg/kg, 40 mg/kg LPS i.p.): not dead
- Percent survival (%) ([2]; fursultiamine 100 mg/kg fed 24 h and 30 min before and 6 h after 40 mg/kg LPS i.p., 0 d): 100%
- Percent survival (%) ([2]; fursultiamine 100 mg/kg fed, 40 mg/kg LPS i.p., 1 d): 100%
- Percent survival (%) ([2]; fursultiamine 100 mg/kg fed, 40 mg/kg LPS i.p., 2 d): 100%
- Percent survival (%) ([2]; fursultiamine 100 mg/kg fed, 40 mg/kg LPS i.p., 3 d): 100%
- Percent survival (%) ([2]; fursultiamine 100 mg/kg fed, 40 mg/kg LPS i.p., 4 d): 100%
- Percent survival (%) ([2]; fursultiamine 100 mg/kg fed, 40 mg/kg LPS i.p., 5 d): 100%
- Percent survival (%) ([2]; fursultiamine 100 mg/kg fed, 40 mg/kg LPS i.p., 6 d): 100%
- Percent survival (%) ([2]; fursultiamine 100 mg/kg fed, 40 mg/kg LPS i.p., 7 d): 100%
- IL-1β (IL-1β [3]; 10 μM): 878.0075 pg/mL
- IL-1β expression level relative to LPS + ATP alone (IL-1β [3]; 50 μM): about 85.8237%
- IL-1β (IL-1β [3]; 50 μM): 799.4891 pg/mL
- IL-1β expression level relative to LPS + ATP alone (IL-1β [3]; 100 μM): about 63.6037%
- IL-1β (IL-1β [3]; 100 μM): 592.4987 pg/mL
- TNFα expression level relative to LPS alone (TNFα [4]; 50 μM): about 57.22%
- TNFα (pg/mL) (TNFα [4]; 50 μM, dendritic cells, 100 ng/mL LPS 18 h): 3,003.47 pg/mL
- TNFα expression level relative to LPS alone (TNFα [4]; 100 μM): about 31.02%
- TNFα (TNFα [4]; [8]): 38.37 pg/mL
- CD40 (Mean fluorescence intensity; MFI) (CD40; [9]): 1,992 MFI
- CD40 (Mean fluorescence intensity; MFI) (CD40; [10]): 2,026 MFI
- CD40 expression level relative to LPS alone (CD40; 100 μM, dendritic cells): about 62%
- CD40 (Mean fluorescence intensity; MFI) (CD40; [8]): 253 MFI
- CD40 (Mean fluorescence intensity; MFI) (CD40; [11]): 1,245 MFI
- IL-1β (IL-1β [5]; fursultiamine (50 mg/kg as in table; 100 mg/kg in text) along with LPS, 0 h): 4.483 pg/mL
- IL-1β (IL-1β [5]; fursultiamine along with LPS, 1 h): 6.115 pg/mL
- IL-1β (IL-1β [5]; fursultiamine along with LPS, 3 h): 96.715 pg/mL
- IL-1β (IL-1β [5]; fursultiamine along with LPS, 6 h): 186.088 pg/mL
- IL-1β expression level relative to the control without administration (IL-1β [5]; fursultiamine along with LPS, 6 hours): about 54.936%
- IL-1β (IL-1β [5]; fursultiamine along with LPS, 12 h): 495.824 pg/mL
- IL-1β expression level relative to the control without administration (IL-1β [5]; fursultiamine along with LPS, 12 hours): about 60.777%
- IL-1β (IL-1β [5]; fursultiamine along with LPS, 18 h): 171.451 pg/mL
- IL-1β expression level relative to the control without administration (IL-1β [5]; fursultiamine along with LPS, 18 hours): about 29.673%
- CD86 (Mean fluorescence intensity; MFI) (CD86 [6]): 1,275 MFI
- CD86 (Mean fluorescence intensity; MFI) (CD86 [7]; [9]): 2,684 MFI
- CD86 (Mean fluorescence intensity; MFI) (CD86 [7]; [10]): 2,864 MFI
- CD86 expression level relative to LPS alone (CD86 [7]; 100 μM, dendritic cells): about 13%
- CD86 (Mean fluorescence intensity; MFI) (CD86 [7]; [8]): 382 MFI
- CD86 (Mean fluorescence intensity; MFI) (CD86 [7]; [11]): 351 MFI
